Data on four compounds can be found in paper PMC10403511, “DNA-encoded chemical libraries yield non-covalent and non-peptidic SARS-CoV-2 main protease inhibitors” (Communications Chemistry, 2023).

SMILES strings stand for the structures. Where two headings read alike, the source gives them in different places.

Data set [1] deals with HepG2 cells. It counts as in vitro ADME. The conditions noted are these: 10 μM, 2 h. The protocol:
The plate was incubated at 37 °C for another 2 h, and the medium in the plate was then decanted. The cells were rinsed with 1 mL of 1× DPBS three times, trypsinized at 37 °C for 3.5 min, centrifuged, and the cell pellets from each well were reconstituted in 500 μL of MeOH/H2O (vol/vol 1/1). […] The mixtures were centrifuged at 15,000 rcf for 15 min. Three microliters of the supernatant were injected into UHPLC-Q Exactive Orbitrap MS (Thermo Fisher Scientific) equipped with a 50 × 4.6-mm column (XDB C-18; Agilent Technologies) for analysis. The column temperature was set at 40 °C. The mobile phase system was (A) water (containing 0.1% formic acid) and (B) acetonitrile (containing 0.1% formic acid), with a flow rate of 0.3 mL/min. The gradient elution program was set as follows: 0 to 0.25 min, 40% B; 0.25 to 1.5 min, 40 to 98% B; 1.5 to 3.5 min, 98% B; 3.5 to 3.8 min, 98 to 40% B; 3.8 to 5 min, 40% B. Ultrapure nitrogen was used as the sheath (45 arbitrary units), auxiliary (10 arbitrary units), and sweep (1.0 arbitrary unit) gas. The capillary and auxiliary gas temperatures were 275 °C and 380 °C, respectively. The spray voltage was 3.75 kV. […]
were expressed as the intracellular concentrations (peak areas) of these compounds. […]
and homogenized. The intracellular concentrations were measured with UHPLC-Q E xa ct ive Orbitrap MS. ND stands for “not detected”.

For data set [2], the system named is HepG2 cells. Description: cells. The conditions noted are these: Homo sapiens, HepG2, 24 h, read-out: IC50 (HepG2 cell viability).
Data set [3] concerns the target T1, matrix metallopeptidase-1 (MMP-1) (Homo sapiens, UniProt P03956).
T1 construct: purchased Biovision K794-100
T1 sequence (P03956 100-469): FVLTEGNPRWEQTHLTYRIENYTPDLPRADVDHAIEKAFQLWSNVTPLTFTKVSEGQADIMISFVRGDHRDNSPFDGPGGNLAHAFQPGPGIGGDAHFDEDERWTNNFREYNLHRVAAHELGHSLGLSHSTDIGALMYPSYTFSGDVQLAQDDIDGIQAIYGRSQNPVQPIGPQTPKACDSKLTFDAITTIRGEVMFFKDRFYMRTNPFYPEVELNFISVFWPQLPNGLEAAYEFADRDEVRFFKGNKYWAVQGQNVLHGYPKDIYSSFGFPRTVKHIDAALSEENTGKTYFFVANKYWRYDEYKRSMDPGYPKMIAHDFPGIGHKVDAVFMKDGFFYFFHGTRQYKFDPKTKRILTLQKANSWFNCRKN
Description: Human protease off-target assay, commercial kit. It counts as biochemical. The conditions noted are these: 10 µM compound, 37 °C. The protocol:
(§1) These assays were done exactly as we described earlier. In brief, commercial kits were used for all four human proteases as follows: Cathepsin B (BPS Bioscience, #79590), Renin (BPS Bioscience, #80211), Thrombin (Sigma-Aldrich, #MAK243), and MMP-1 (Biovision, #K794-100). All assays were run in kinetic mode and at RT, except MMP-1, which was run at 37 °C. Positive controls were used for all assays, i.e., E64 for Cathepsin B, Aliskiren for Renin, CDD-1472 for Thrombin, and GM 6001 for MMP-1. Activities were obtained from linear initial progress curves, and fractional activities were calculated from reactions with no inhibitors[17],[19],[34].
(§2) Supplementary Figure 4. Potential off-target inhibition of major proteases, i.e. thrombin (a serine protease), cathepsin B (a cysteine protease like Mpro), renin (an
(§3) control inhibitors as indicated. S9 […]

Another data set deals with T2, cathepsin B (Homo sapiens, UniProt P07858).
T2 construct: purchased BPS Bioscience 79590
The data set can be described thus: Human protease off-target assay, commercial kit. The conditions noted are these: 10 µM compound. It counts as biochemical. The protocol:
as §1, §2, §3

For another data set, the target named is T3, thrombin (Homo sapiens, UniProt P00734).
T3 construct: purchased Sigma-Aldrich MAK243
Description: Human protease off-target assay, commercial kit. The conditions noted are these: 10 µM compound. Format: biochemical. The protocol: as §1, §2, §3

A further data set deals with T4, renin (Homo sapiens, UniProt P00797).
T4 construct: purchased BPS Bioscience 80211
T4 sequence (P00797 67-406): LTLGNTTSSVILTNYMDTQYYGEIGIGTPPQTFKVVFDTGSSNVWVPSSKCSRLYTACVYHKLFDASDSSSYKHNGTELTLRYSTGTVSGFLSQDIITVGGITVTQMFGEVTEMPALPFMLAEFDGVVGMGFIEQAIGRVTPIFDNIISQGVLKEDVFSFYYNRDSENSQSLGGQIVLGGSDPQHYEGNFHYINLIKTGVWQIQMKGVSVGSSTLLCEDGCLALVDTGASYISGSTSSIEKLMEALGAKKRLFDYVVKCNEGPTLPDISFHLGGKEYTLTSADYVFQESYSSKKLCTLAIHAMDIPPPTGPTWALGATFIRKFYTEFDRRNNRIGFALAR
The data set can be described thus: Human protease off-target assay, commercial kit. The conditions noted are these: 11.1 µM compound. It counts as biochemical. How it is done: as §1, §2, §3

Data set [4] is classed as in vitro ADME, mouse. The conditions noted are these: 10 μM. How it is done:
(§4) At time points of 0, 30, 60, and 120 min, 15 μL of the samples were taken out, and the reactions were terminated by adding 75 μL of ice-cold methanol. The reaction mixtures were then vortexed for 30 s and centrifuged at 15,000 rcf for 15 min. […] The percentage of test compound remaining at the individual time points was normalized by the 0-min.
(§5) 10 µM in duplicate (n=2) at 37 °C. The reactions were terminated at time points of 0, 30, 60 and 120 min by adding ice-cold methanol. Following centrifugation, the supernatant was analyzed using UHPLC-Q E xa ct ive Orbitrap MS. The percentage of test compound remaining at the individual time points relative to the 0 min sample was determined S12

Data set [5] is classed as in vitro ADME, human. The conditions noted are these: 10 μM. How it is done: as §4, §5
In data set [6] the test system is HepG2 cells.
A further data set in a line: in vitro. The conditions noted are these: human.
A further data set can be described thus: in vivo. The conditions noted are these: 50 mg/kg; for half-life: plasma; for CL/F: mice, per oral gavage (po.), n=4, mean ± SD. How it is done: The whole blood samples were centrifuged at rcf 2000 for 5 min for the plasma separation of plasma. The plasma samples were stored at −80 °C before analysis. All the samples were analyzed with a Q Exactive orbitrap MS coupled with UHPLC (Thermo Fisher Scientific, San Jose, CA). LC-Q Exactive MS was operated in the same parameters used in the cell uptake assay above. The concentration of these compounds in plasma was quantified using individual calibration curves.
PK parameters such as half-time (T1/2), area under the plasma concentration–time curve during the period of observation (AUC0–t), area under the plasma concentration–time curve from zero to infinity (AUC0–∞), clearance normalized by the bioavailability (CL/F), and the mean residence time (MRT) were calculated by WinNonlin software (Certara, Princeton, NJ) by noncompartmental analysis. The plasma concentration–time curves were plotted in Prism 7 (GraphPad, San Diego, CA) as mean ± S.D.
Mouse PK of CDD compounds, 50 mg/kg
samples we re collected at 0, 5, 10, 15, 30 m in , 1, 2, 4, 6 and 8 h af ter dosing. P la sm a samples we re separated, prepared and analyzed wit h LC-MS. The compound
± SD (n=4). Tmax, time to rea ch the m a ximum pla sma concentration. Cm ax, maximum p las m a concentration. T1/2, half-lif e . AUC, area under the cu rve . CL, clea ran ce . F,
bioavailability. M R T, mean residence time.

Data set [7] concerns M^pro variant ΔP168/A173V. The conditions noted are these: previously shown; cited from earlier work.
The subject of a further data set is M^pro variant A173V. The conditions noted are these: previously shown; cited from earlier work.

For `CCC[C@H](NC(=O)c1cccc2nc(-c3cncc4ccccc34)n([C@H]3C[C@H](C(=O)NC)C3)c12)c1ccc(C(F)(F)F)cc1` [CDD-1733], the “cell uptake (permeability)” value in the data set on HepG2 cells [1] was “good permeability”. Further, the IC50 (usually the concentration that gives 50% inhibition) in the data set on HepG2 cells [2] was > 100 µM. For the same compound, the “inhibition of enzymatic activity” value (in [3]; at cathepsin B; against thrombin; against renin) was “None of these inhibitors blocked the enzymatic activity” each time. Besides, the “compound remaining in plasma” value in data set [4] (mouse plasma, 37 °C, after 2 h incubation) is listed as 80%; in data set [5] (human plasma, 37 °C, after 2 h incubation), 80%. The cytotoxicity result in the data set on HepG2 cells [6] (HepG2 cells) is on record as “no obvious cytotoxicity”.

Consider `CNC(=O)[C@H]1C[C@H](n2c(-c3cncc4ccccc34)nc3cccc(C(=O)N[C@@H](C)c4ccc5ccccc5c4)c32)C1` [CDD-1819], for which the IC50 in the data set with HepG2 cells [2] was > 100 µM. Besides, the viability (commonly a read-out of living cells in per cent, often relative to untreated cells) at 24 h, 100 µM in the data set “in vitro” was > 80%. Further, the “inhibition of enzymatic activity” value (in [3]; against cathepsin B; against thrombin; against renin) was “None of these inhibitors blocked the enzymatic activity” each time. Besides, the “compound remaining in plasma” value is given as 80% in data set [4] (mouse, plasma, 2 h) and 80% in [5] (human, plasma, 2 h). In the data set “in vivo” (male, mouse, in vivo, po), the MRT inf (commonly the average time that molecules of a dose stay in the body) stood at 1.42 ± 0.16 h. Besides, the MRT last (as a rule, a mean duration of stay, worked out from the concentration-time curve) in the data set “in vivo” (male, mouse, in vivo, po) came out at 1.31 ± 0.12 h. The Tmax (as a rule, the time from dosing to the highest level) in the data set “in vivo” (male, mouse, in vivo, po) is 0.33 ± 0.14 h. The half-life – broadly, the time needed for the level to fall by half in the phase considered – in “in vivo” (male, mouse, oral) was 1.2 ± 0.1 h. The CL/F in “in vivo” is 7.26 ± 1.81 mg/ ( hr*µmol/L)/kg. Further, in the data set on HepG2 cells [6], the cytotoxicity result is given as “no obvious cytotoxicity”.

On to `CNC(=O)CCCn1c(-c2cncc3ccccc23)nc2cccc(C(=O)N[C@@H](C)c3ccc4ccccc4c3)c21` [CDD-1845], for which the IC50 in the data set with HepG2 cells [2] was > 100 µM. For the same compound, in the data set “in vitro”, the viability at 24 h, 100 µM was > 80%. Moreover, in [3], the “inhibition of enzymatic activity” value is “None of these inhibitors blocked the enzymatic activity”. For the same compound, the “inhibition of enzymatic activity” value at cathepsin B is reported as “None of these inhibitors blocked the enzymatic activity”. Moreover, the “inhibition of enzymatic activity” value against thrombin is listed as “None of these inhibitors blocked the enzymatic activity”. Besides, the “inhibition of enzymatic activity” value on renin is recorded as “None of these inhibitors blocked the enzymatic activity”. In addition, the “compound remaining in plasma” value in data set [4] (mouse, plasma, 2 h) was found to be 80%. For the same compound, in data set [5] (human, plasma, 2 h), the “compound remaining in plasma” value is on record as 80%. Besides, in “in vivo” (male, mouse, in vivo, po), the AUC(0-inf) (as a rule, total exposure, with the tail of the curve extrapolated) came to 14.9 ± 7.85 µM·h; the AUC(0-t) – broadly, exposure summed from dosing to a finite time, without extrapolation to infinity – amounted to 14.9 ± 7.79 µM·h; the concentration peaked (Cmax) at 8.93 ± 4.55 µM; the MRT inf amounted to 1.25 ± 0.02 h. In addition, in the data set “in vivo” (male, mouse, in vivo, po), the MRT last amounted to 1.22 ± 0.03 h and the Tmax came to 0.33 ± 0.14 h. This compound gave a half-life in “in vivo” (male, mouse, oral) of 1.1 ± 0.3 h. The compound also had a half-life in the data set “in vivo” (male, mouse, po) of 1.14 ± 0.32 h. For the same compound, the CL/F in “in vivo” is reported as 4.02 ± 1.98 mg/ ( hr*µmol/L)/kg. For the same compound, the cytotoxicity result with HepG2 cells [6] is recorded as “no obvious cytotoxicity”.

As to `CC(C)(C)[C@H](NC(=O)C(F)(F)F)C(=O)N1C[C@H]2[C@@H]([C@H]1C(=O)N[C@H](C#N)C[C@@H]1CCNC1=O)C2(C)C` [Nirmatrelvir, nirmatrelvir], the “increase in Ki relative to WT” value in data set [7] was 600 fold; with M^pro variant A173V, 50 fold.
